According to patent US5216005A, “Immunosuppressive analogues and derivatives of succinylacetone” (priority 1990, dated 1993):

How the values were obtained:
[1] = tested on: IFN-γ (human lymphoid cells); assay: IFN-γ production in primary mixed lymphocyte reaction (WISH cells/EMC virus assay); assay type: cell-based; parameters: IFN-γ: unit not given here; details: for IFN-γ: 1° MLR
Experimental: Derivatives of succinylacetone were tested for immunosuppressive activity in several different types of assay systems. The first consisted of measuring the amounts of interleukin-2 (IL-2), and interferon-γ (IFN-γ) produced by human lymphoid cells in a mixed lymphocyte reaction. Low levels of these molecules in the reaction mixture indicate that the immune system is being suppressed by the subject succinylacetone derivatives.
IFN-γ was determined by measuring the amount of protection conveyed on human WISH cells against the cytopathic effects of encephalomyocarditis virus (EMC). This assay is described by I. A. Braude, J. of Immunol. Methods 63:237 (1983). Both publications are hereby incorporated by reference.
(§1) The mixed lymphocyte reaction assay can be carried out by techniques well known to those skilled in the art. L. Hudson and F. C. Huy, Practical Immunology, p. 260, Blackwell Scientific Publications (1976). Briefly this consists of isolating lymphocytes from human peripheral blood by standard density gradient centrifugation techniques from two separate individuals. Approximately 2×10^5 lymphocytes of each individual are combined to yield a total of 4×10^5 lymphocytes per culture. All procedures are carried out under sterile conditions, and the lymphocytes are isolated and kept in physiologically compatible solutions. To the mixture of lymphocytes is added a desired amount of an appropriate succinylacetone derivative, and after different times an aliquot of the mixture is removed and assayed for IL-2 or IFN-γ, or ^3 H-T is measured.

[2] = tested on: human lymphocytes; assay: tritiated thymidine uptake in primary mixed lymphocyte reaction; assay type: cell-based; details: for incorporation of tritiated thymidine: Table IV
Description: The in vitro mixed lymphocyte assay described below is presently employed in the clinical setting as an indicator of histocompatibility, and is premised on the transformation of resting genetically dissimilar lymphocytes into cells which synthesize DNA and undergo proliferation.
as §1
As mentioned above, one measure of an immune response as reflected in a mixed lymphocyte assay is the stimulation of DNA synthesis, and a concomitant increase in cell number. Thus, to further ascertain the immunosuppressive activity of succinylacetonyl-proline-NH-PEG, its effect on inhibition of thymocyte growth, as detected by uptake of tritiated thymidine, was assayed.

[3] = viability of peripheral blood lymphocytes with or without PHA, trypan blue exclusion; assay type: cell-based, human; details: human, peripheral blood lymphocytes; for viability at 2200 µM: 2.2 mM; for viability at 6700 µM: 6.7 mM; for viability at 20000 µM: 20 mM
Experimental: (§2) Viability was determined using the trypan blue exclusion method well known in the art. […] The assays were conducted in duplicate wherein peripheral blood lymphocytes were isolated from two separate individuals, and then treated with or without phytohemagglutinin in the presence of various concentrations of the appropriate succinylacetone derivative.

[4] = tested on: peripheral blood lymphocytes; assay: as above; assay type: cell-based, human
Experimental: as §2

COC(=O)CCC(C(C)=O)C(C)=O [Methyl 4-Acetyl-5-Oxohexanoate, methyl 4-acetyl-5-oxohexanoate]
IFN-γ ([1]; Exp I, 3 μM): 1260
IFN-γ ([1]; Exp I, 9 μM): 1260
IFN-γ ([1]; Exp I, 27 μM): 1260
IFN-γ ([1]; Exp I, 81 μM): 1313
IFN-γ ([1]; Exp I, 244 μM): 998
IFN-γ ([1]; Exp I, 733 μM): 570
IFN-γ ([1]; Exp I, 2.2 mM): 285
IFN-γ ([1]; Exp I, 6.7 mM): < 285
IFN-γ ([1]; Exp I, 20 mM): < 285
IFN-γ ([1]; Exp II, 3 μM): 1144
IFN-γ ([1]; Exp II, 9 μM): 1248
IFN-γ ([1]; Exp II, 27 μM): 1248
IFN-γ ([1]; Exp II, 81 μM): 1560
IFN-γ ([1]; Exp II, 244 μM): 1953
IFN-γ ([1]; Exp II, 733 μM): 1172
IFN-γ ([1]; Exp II, 2.2 mM): 703
IFN-γ ([1]; Exp II, 6.7 mM): < 469
IFN-γ ([1]; Exp II, 20 mM): < 469
IC50 ([1]; Homo sapiens, Lymphocyte, primary MLR, read-out: concentration causing 50% reduction in IFN-γ production): ~2200 µM
IC50 ([2]; Homo sapiens, Lymphocyte, primary MLR, read-out: concentration causing 50% inhibition in thymidine uptake): ~2200 µM
incorporation of tritiated thymidine ([2]; Exp I, 3 μM): 74259
incorporation of tritiated thymidine ([2]; Exp I, 9 μM): 77627
incorporation of tritiated thymidine ([2]; Exp I, 27 μM): 77634
incorporation of tritiated thymidine ([2]; Exp I, 81 μM): 81881
incorporation of tritiated thymidine ([2]; Exp I, 244 μM): 48284
incorporation of tritiated thymidine ([2]; Exp I, 733 μM): 67787
incorporation of tritiated thymidine ([2]; Exp I, 2.2 mM): 29389
incorporation of tritiated thymidine ([2]; Exp I, 6.7 mM): 135
incorporation of tritiated thymidine ([2]; Exp I, 20 mM): 163
incorporation of tritiated thymidine ([2]; Exp II, 3 μM): 114713
incorporation of tritiated thymidine ([2]; Exp II, 9 μM): 117109
incorporation of tritiated thymidine ([2]; Exp II, 27 μM): 112463
incorporation of tritiated thymidine ([2]; Exp II, 81 μM): 113054
incorporation of tritiated thymidine ([2]; Exp II, 244 μM): 122672
incorporation of tritiated thymidine ([2]; Exp II, 733 μM): 113732
incorporation of tritiated thymidine ([2]; Exp II, 2.2 mM): 84363
incorporation of tritiated thymidine ([2]; Exp II, 6.7 mM): 21280
incorporation of tritiated thymidine ([2]; Exp II, 20 mM): 109
viability at 3 µM ([3]; first individual, (+) PHA): 100%
viability at 9 µM ([3]; first individual, (+) PHA): 100%
viability at 27 µM ([3]; first individual, (+) PHA): 100%
viability at 81 µM ([3]; first individual, (+) PHA): 100%
viability at 244 µM ([3]; first individual, (+) PHA): 100%
viability at 733 µM ([3]; first individual, (+) PHA): 100%
viability at 2200 µM ([3]; first individual, (+) PHA): 100%
viability at 6700 µM ([3]; first individual, (+) PHA): 100%
viability at 20000 µM ([3]; first individual, (+) PHA): 100%
viability at 3 µM ([3]; first individual, (-) PHA): 100%
viability at 9 µM ([3]; first individual, (-) PHA): 100%
viability at 27 µM ([3]; first individual, (-) PHA): 100%
viability at 81 µM ([3]; first individual, (-) PHA): 100%
viability at 244 µM ([3]; first individual, (-) PHA): 100%
viability at 733 µM ([3]; first individual, (-) PHA): 100%
viability at 2200 µM ([3]; first individual, (-) PHA): 100%
viability at 6700 µM ([3]; first individual, (-) PHA): 100%
viability at 20000 µM ([3]; first individual, (-) PHA): 100%
viability at 3 µM ([3]; second individual, (+) PHA): 100%
viability at 9 µM ([3]; second individual, (+) PHA): 100%
viability at 27 µM ([3]; second individual, (+) PHA): 100%
viability at 81 µM ([3]; second individual, (+) PHA): 100%
viability at 244 µM ([3]; second individual, (+) PHA): 100%
viability at 733 µM ([3]; second individual, (+) PHA): 100%
viability at 2200 µM ([3]; second individual, (+) PHA): 100%
viability at 6700 µM ([3]; second individual, (+) PHA): 100%
viability at 20000 µM ([3]; second individual, (+) PHA): 100%
viability at 3 µM ([3]; second individual, (-) PHA): 100%
viability at 9 µM ([3]; second individual, (-) PHA): 100%
viability at 27 µM ([3]; second individual, (-) PHA): 100%
viability at 81 µM ([3]; second individual, (-) PHA): 100%
viability at 244 µM ([3]; second individual, (-) PHA): 100%
viability at 733 µM ([3]; second individual, (-) PHA): 100%
viability at 2200 µM ([3]; second individual, (-) PHA): 100%
viability at 6700 µM ([3]; second individual, (-) PHA): 100%
viability at 20000 µM ([3]; second individual, (-) PHA): 100%
toxicity ([4]; as high as 20 mM): no toxicity
Cells/ml ([4]; first individual, (+) PHA, 3 μM): 0.45 X 10^6 Cells/ml
Cells/ml ([4]; first individual, (+) PHA, 9 μM): 0.47 X 10^6 Cells/ml
Cells/ml ([4]; first individual, (+) PHA, 27 μM): 0.46 X 10^6 Cells/ml
Cells/ml ([4]; first individual, (+) PHA, 81 μM): 0.38 X 10^6 Cells/ml
Cells/ml ([4]; first individual, (+) PHA, 244 μM): 0.44 X 10^6 Cells/ml
Cells/ml ([4]; first individual, (+) PHA, 733 μM): 0.38 X 10^6 Cells/ml
Cells/ml ([4]; first individual, (+) PHA, 2.2 mM): 0.49 X 10^6 Cells/ml
Cells/ml ([4]; first individual, (+) PHA, 6.7 mM): 0.46 X 10^6 Cells/ml
Cells/ml ([4]; first individual, (+) PHA, 20 mM): 0.49 X 10^6 Cells/ml
Cells/ml ([4]; first individual, (-) PHA, 3 μM): 0.39 X 10^6 Cells/ml
Cells/ml ([4]; first individual, (-) PHA, 9 μM): 0.55 X 10^6 Cells/ml
Cells/ml ([4]; first individual, (-) PHA, 27 μM): 0.44 X 10^6 Cells/ml
Cells/ml ([4]; first individual, (-) PHA, 81 μM): 0.42 X 10^6 Cells/ml
Cells/ml ([4]; first individual, (-) PHA, 244 μM): 0.40 X 10^6 Cells/ml
Cells/ml ([4]; first individual, (-) PHA, 733 μM): 0.37 X 10^6 Cells/ml
Cells/ml ([4]; first individual, (-) PHA, 2.2 mM): 0.57 X 10^6 Cells/ml
Cells/ml ([4]; first individual, (-) PHA, 6.7 mM): 0.57 X 10^6 Cells/ml
Cells/ml ([4]; first individual, (-) PHA, 20 mM): 0.5 X 10^6 Cells/ml
Cells/ml ([4]; second individual, (+) PHA, 3 μM): 0.40 X 10^6 Cells/ml
Cells/ml ([4]; second individual, (+) PHA, 9 μM): 0.50 X 10^6 Cells/ml
Cells/ml ([4]; second individual, (+) PHA, 27 μM): 0.50 X 10^6 Cells/ml
Cells/ml ([4]; second individual, (+) PHA, 81 μM): 0.40 X 10^6 Cells/ml
Cells/ml ([4]; second individual, (+) PHA, 244 μM): 0.54 X 10^6 Cells/ml
Cells/ml ([4]; second individual, (+) PHA, 733 μM): 0.40 X 10^6 Cells/ml
Cells/ml ([4]; second individual, (+) PHA, 2.2 mM): 0.50 X 10^6 Cells/ml
Cells/ml ([4]; second individual, (+) PHA, 6.7 mM): 0.50 X 10^6 Cells/ml
Cells/ml ([4]; second individual, (+) PHA, 20 mM): 0.55 X 10^6 Cells/ml
Cells/ml ([4]; second individual, (-) PHA, 3 μM): 0.44 X 10^6 Cells/ml
Cells/ml ([4]; second individual, (-) PHA, 9 μM): 0.52 X 10^6 Cells/ml
Cells/ml ([4]; second individual, (-) PHA, 27 μM): 0.50 X 10^6 Cells/ml
Cells/ml ([4]; second individual, (-) PHA, 81 μM): 0.46 X 10^6 Cells/ml
Cells/ml ([4]; second individual, (-) PHA, 244 μM): 0.5 X 10^6 Cells/ml
Cells/ml ([4]; second individual, (-) PHA, 733 μM): 0.41 X 10^6 Cells/ml
Cells/ml ([4]; second individual, (-) PHA, 2.2 mM): 0.54 X 10^6 Cells/ml
Cells/ml ([4]; second individual, (-) PHA, 6.7 mM): 0.6 X 10^6 Cells/ml
Cells/ml ([4]; second individual, (-) PHA, 20 mM): 0.5 X 10^6 Cells/ml
